From PubChem BioAssay AID256 (DTP/NCI, 2004)
Toxic doses and inconclusive results are not listed. Rule for the calls: active = survival T/C of 150% or more; inactive = T/C below 125% in these data.

Test system: CD2F1 mice, L1210 leukemia ip, survival T/C
Assay: NCI In Vivo Anticancer Drug Screen. Data for tumor model L1210 Leukemia (intraperitoneal) in CD2F1 (CDF1) mice
Conditions: endpoint: mean survival time, higher = longer survival
In short: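 Implant tumor; dose compound or vehicle; measure endpoint in both groups; report treated divided by control.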

[1] = dose: 100.0 mg/kg/injection, schedule: Q04DX003 (ip), vehicle: saline with Tween-80
[2] = dose: 200.0 mg/kg/injection, schedule: Q04DX003 (ip), vehicle: saline with Tween-80
[3] = dose: 400.0 mg/kg/injection, schedule: Q04DX003 (ip), vehicle: saline with Tween-80
[4] = dose: 100.0 mg/kg/injection, schedule: Q01DX009 (ip), vehicle: saline
[5] = dose: 75.0 mg/kg/injection, schedule: Q01DX001 (ip), vehicle: saline
[6] = dose: 150.0 mg/kg/injection, schedule: Q01DX001 (ip), vehicle: saline
[7] = dose: 100.0 mg/kg/injection, schedule: Q01DX001 (ip), vehicle: saline with Tween-80
[8] = dose: 200.0 mg/kg/injection, schedule: Q01DX001 (ip), vehicle: saline with Tween-80
[9] = dose: 400.0 mg/kg/injection, schedule: Q01DX001 (ip), vehicle: saline with Tween-80

Measured: T/C

O=C(c1ccccc1)C(Sc1ccccc1)c1ccccc1 (stereo not given)
inactive: [1] 97 % of control | [2] 101 % of control | [3] 97 % of control

CCCCCCCCC/C=C(\CCCCCCCCCC)c1ccccc1
inactive: dose: 100.0 mg/kg/injection, schedule: Q01DX001 (ip), vehicle: saline 94 % of control | dose: 200.0 mg/kg/injection, schedule: Q01DX001 (ip), vehicle: saline 94 % of control | dose: 400.0 mg/kg/injection, schedule: Q01DX001 (ip), vehicle: saline 100 % of control

O=C(Nc1cccc(F)c1)c1ccco1
inactive: dose: 100.0 mg/kg/injection, schedule: Q04DX003 (ip), vehicle: Klucel (hydroxypropylcellulose) (HPC) 94 % of control | dose: 200.0 mg/kg/injection, schedule: Q04DX003 (ip), vehicle: Klucel (hydroxypropylcellulose) (HPC) 88 % of control | dose: 400.0 mg/kg/injection, schedule: Q04DX003 (ip), vehicle: Klucel (hydroxypropylcellulose) (HPC) 91 % of control

O=C(O)CCC(NC(=O)OCc1ccccc1)C(=O)OCc1ccccc1 (stereo not given)
inactive: [1] 95 % of control | [2] 93 % of control | [3] 96 % of control

O=C(O)C1CC[N-]CC1.O=C(O)C1CC[N-]CC1.O=C(O)C1CC[N-]CC1.O=C(O)C1CC[N-]CC1.[Cl][Rh][Cl]
inactive: dose: 66.0 mg/kg/injection, schedule: Q01DX009 (ip), vehicle: saline 112 % of control | [4] 110 % of control

O=C(O)c1cc(C(=O)O)c(C(=O)O)cc1C(=O)O.[NH-]C1CCCC1.[NH-]C1CCCC1.[NH-]C1CCCC1.[NH-]C1CCCC1.[Pt+2].[Pt+2]
inactive: dose: 3.12 mg/kg/injection, schedule: Q04DX003 (ip), vehicle: distilled water + Tween-80 103 % of control | dose: 6.25 mg/kg/injection, schedule: Q04DX003 (ip), vehicle: distilled water + Tween-80 107 % of control | dose: 12.5 mg/kg/injection, schedule: Q04DX003 (ip), vehicle: distilled water + Tween-80 108 % of control | dose: 25.0 mg/kg/injection, schedule: Q04DX003 (ip), vehicle: distilled water + Tween-80 111 % of control | dose: 50.0 mg/kg/injection, schedule: Q04DX003 (ip), vehicle: distilled water + Tween-80 108 % of control | dose: 100.0 mg/kg/injection, schedule: Q04DX003 (ip), vehicle: distilled water + Tween-80 113 % of control | dose: 200.0 mg/kg/injection, schedule: Q04DX003 (ip), vehicle: distilled water + Tween-80 124 % of control

CC(C)OC(CCCl)c1ccc(Cl)cc1 (stereo not given)
inactive: dose: 100.0 mg/kg/injection, schedule: Q01DX009 (ip), vehicle: saline with Tween-80 104 % of control | [1] 94 % of control | dose: 200.0 mg/kg/injection, schedule: Q01DX009 (ip), vehicle: saline with Tween-80 96 % of control | [2] 96 % of control | dose: 400.0 mg/kg/injection, schedule: Q01DX009 (ip), vehicle: saline with Tween-80 89 % of control | [3] 97 % of control

CSc1nc(=O)[nH]nc1Sc1ccccc1
inactive: [5] 102 % of control | [6] 101 % of control

N/N=C1\CC2C3CC4(OCCO4)C4C3CC2C14 (stereo not given)
inactive: [5] 102 % of control | [6] 103 % of control

CCOC(=O)/C=C/SCCCC(=O)O
inactive: [7] 100 % of control | [8] 105 % of control | [9] 95 % of control

CC(=O)OC(CC(=O)CC(OC(C)=O)(C(F)(F)F)C(F)(F)F)(C(F)(F)F)C(F)(F)F
inactive: [4] 100 % of control | dose: 200.0 mg/kg/injection, schedule: Q01DX009 (ip), vehicle: saline 97 % of control | dose: 400.0 mg/kg/injection, schedule: Q01DX009 (ip), vehicle: saline 103 % of control

O=C(N/N=C/c1ccccc1)c1nn[nH]n1
inactive: [7] 96 % of control | [8] 88 % of control | [9] 88 % of control

c1ccc2c3c(ccc2c1)OCCOCCOCCOCCOc1ccc2ccccc2c1-3
inactive: [7] 91 % of control | [8] 100 % of control | [9] 100 % of control

Nc1cc(Nc2ccc(Cl)cc2)c2nc(-c3ccc(Cl)cc3)c(-c3ccc(Cl)cc3)nc2n1
inactive: [1] 100 % of control | [2] 107 % of control | [3] 107 % of control

c1ccc2c(c1)Sc1ccccc1N2CCCNC1=NCCO1
inactive: dose: 25.0 mg/kg/injection, schedule: Q04DX002 (ip), vehicle: saline with Tween-80 97 % of control | dose: 50.0 mg/kg/injection, schedule: Q04DX002 (ip), vehicle: saline with Tween-80 94 % of control | [7] 89 % of control | dose: 100.0 mg/kg/injection, schedule: Q04DX002 (ip), vehicle: saline with Tween-80 94 % of control
